In US11339157B1, “4H-pyrrolo[3,2-c]pyridin-4-one derivatives” (Bayer Aktiengesellschaft, priority 2017, dated 2022):
“And” between values parts separate entries of the source, which are not always exact repeats. Equal entries are not always repeated. Structures can show the parent of a compound that is named as a salt.

Tests used:
[1] = molecular target: EGFR ins SVD (insertion of SVD between D770 and N771) (Homo sapiens, UniProt P00533, INS767SVD); assay: Exon 20-Mutant-EGFR(D770_N771insSVD) kinase assay (TR-FRET); assay type: biochemical; conditions: Table 9; read-out: mutEGFR (D770_N771insSVD) kinase assay IC50
Procedure: Exon 20-Mutant-EGFR(D770_N771insSVD) Kinase Assay
Inhibitory activity of compounds of the present invention against an Epidermal Growth Factor Receptor (EGFR) with an insertion of the amino acids sequence SVD between D770 and N771 was quantified employing the TR-FRET based kinase activity assay as described in the following paragraphs.
For the assay 50 nl of a 100-fold concentrated solution of the test compound in DMSO was pipetted into either a black low volume 384 well microtiter plate or a black 1536 well microtiter plate (both Greiner Bio-One, Frickenhausen, Germany), 2 μl of a solution of EGFR in aqueous assay buffer [50 mM Hepes pH 7.0, 10 mM MgCl2, 1 mM dithiothreitol, 0.5 mM EGTA, 0.3 mM activated sodium ortho-vanadate, 0.005% (w/v) bovine serum albumin, 0.005% (v/v) Tween-20] were added and the mixture was incubated for 15 min at 22° C. to allow pre binding of the test compounds to the enzyme before the start of the kinase reaction. […] The concentration of EGFR was adjusted depending of the activity of the enzyme lot and was chosen appropriate to have the assay in the linear range, typical concentration was 15 pg/μl. The reaction was stopped by the addition of 3 μl of a solution of HTRF detection reagents (83.3 nM streptavidine-XL665 [Cisbio Bioassays, Codolet, France] and 1.67 nM PT66-Tb-Cryptate, a terbium-cryptate labelled anti-phospho-tyrosine antibody from Cisbio Bioassays [instead of the PT66 Tb cryptate PT66 Eu Chelate from Perkin Elmer can also be used]) in an aqueous EDTA-solution (133.3 mM EDTA, 0.2% (w/v) bovine serum albumin in 50 mM HEPES pH 7.5).
The resulting mixture was incubated 1 h at 22° C. to allow the binding of the biotinylated phosphorylated peptide to the streptavidine-XL665 and the PT66-Tb-Cryptate. Subsequently the amount of phosphorylated substrate was evaluated by measurement of the resonance energy transfer from the PT66-Tb-Cryptate to the streptavidine-XL665.

[2] = test system: Ba/F3-EGFR-insSVD cells; assay: Proliferation assay in BA/F3 (ins SVD) cells (Cell Titer-Glo); assay type: cell-based
Procedure: (§1) Cellular Data Description (WT, insSVD, Ins ASV)
(§2) Plates were incubated at 37° C. for 48 h. Retrovirus was harvested by filtering the media supernatant through a 0.45 μm filter.
(§3) Ba/F3 cells purchased from DSMZ were grown in RPMI+10% FBS+10 ng/mL IL-3 and infected with filtered retroviral supernatant at a 1:2 dilution. Polybrene was added to a concentration of 8 μg/mL, plates were spun for 90 min, and incubated overnight at 37° C. 2 μg/mL puromycin was added to the infected cells 24 h after infection and cells were continually grown in the presence of puromycin and 10 ng/mL IL-3. Following stably expressing Ba/F3 cell lines were generated: Ba/F3-EGFR-WT, Ba/F3-EGFR-insSVD.
(§4) The cells ectopically expressing WT EGFR were plated with 10 ng/mL Millipore Culture grade EGF. The cells ectopically expressing EGFR-insSVD were plated without EGF.
(§5) 100 nL of compound was added to each well using a 100 nL pin head, and plates were incubated at 37° C. for 48 h.
(§6) Cell viability was measured by adding 30 μL of Cell Titer-Glo Luminescent Cell Viability Reagent. Plates were sealed with Perkin Elmer Top-Seal, inverted several times to mix, and immediately centrifuged at 1000 rpm for 2 min. Plates were incubated in low light conditions for 8-10 min and luminescence was measured.

[3] = test system: Ba/F3-EGFR-WT cells; assay: Proliferation assay in BA/F3 (wild type) cells (Cell Titer-Glo); assay type: cell-based
Procedure: as §1, §2, §3, §4, §5, §6

[4] = Mus musculus, BaF3, 48 h, Table 10, plated without EGF
[5] = Mus musculus, BaF3, 48 h, Table 10, plated with 10 ng/mL EGF
[6] = Mus musculus, BaF3, Table 10, plated without EGF, 48 h
[7] = Mus musculus, BaF3, Table 10, plated with 10 ng/mL EGF, 48 h

Sequence of EGFR ins SVD (insertion of SVD between D770 and N771) (P00533 with tags, fused parts or gaps INS767SVD limits assumed): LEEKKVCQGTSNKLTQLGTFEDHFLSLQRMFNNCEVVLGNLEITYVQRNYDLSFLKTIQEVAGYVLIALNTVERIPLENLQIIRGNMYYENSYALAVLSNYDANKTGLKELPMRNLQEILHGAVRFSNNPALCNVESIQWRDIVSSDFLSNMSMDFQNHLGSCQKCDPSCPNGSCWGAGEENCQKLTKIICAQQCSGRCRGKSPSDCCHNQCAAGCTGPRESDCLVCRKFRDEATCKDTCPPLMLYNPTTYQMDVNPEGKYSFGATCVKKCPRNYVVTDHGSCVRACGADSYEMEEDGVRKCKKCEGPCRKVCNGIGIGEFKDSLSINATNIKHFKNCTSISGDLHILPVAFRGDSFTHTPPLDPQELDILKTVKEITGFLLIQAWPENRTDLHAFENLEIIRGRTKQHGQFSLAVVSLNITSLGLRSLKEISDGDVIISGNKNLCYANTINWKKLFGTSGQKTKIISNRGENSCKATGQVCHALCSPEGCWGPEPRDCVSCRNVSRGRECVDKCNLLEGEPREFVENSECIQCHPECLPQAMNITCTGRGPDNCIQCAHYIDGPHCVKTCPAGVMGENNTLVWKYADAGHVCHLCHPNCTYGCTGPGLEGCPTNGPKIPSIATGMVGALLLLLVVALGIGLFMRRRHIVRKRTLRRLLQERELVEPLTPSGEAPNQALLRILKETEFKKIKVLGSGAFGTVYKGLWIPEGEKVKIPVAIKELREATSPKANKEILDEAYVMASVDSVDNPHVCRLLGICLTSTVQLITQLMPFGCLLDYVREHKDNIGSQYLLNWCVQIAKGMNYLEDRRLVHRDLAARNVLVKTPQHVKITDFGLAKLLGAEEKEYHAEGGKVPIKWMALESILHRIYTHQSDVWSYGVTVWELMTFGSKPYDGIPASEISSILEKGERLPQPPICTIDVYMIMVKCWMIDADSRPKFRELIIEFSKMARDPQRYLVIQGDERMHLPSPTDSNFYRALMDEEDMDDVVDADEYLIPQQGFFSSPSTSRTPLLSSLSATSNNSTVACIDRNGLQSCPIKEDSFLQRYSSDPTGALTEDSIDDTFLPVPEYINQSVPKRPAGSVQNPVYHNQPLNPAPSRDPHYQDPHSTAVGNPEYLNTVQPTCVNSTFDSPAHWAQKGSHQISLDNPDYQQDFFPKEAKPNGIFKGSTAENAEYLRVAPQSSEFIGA

SMILES | IC50 [1] | IC50 [2, 4] | IC50 [3, 5] | IC50 [2, 6] | IC50 [3, 7] | IC50 ([2]; Table 10, plated without EGF, 48 h) | IC50 ([3]; Table 10, plated with 10 ng/mL EGF, 48 h)
CC(C)(O)COc1cnccc1-c1[nH]c2c(c1Nc1cccc(F)c1OC(F)F)C(=O)NCC2 [Example 73, 3-[2-(difluoromethoxy)-3-fluoroanilino]-2-[3-(2-hydroxy-2-methylpropoxy)pyridin-4-yl]-1,5,6,7-tetrahydro-4H-pyrrolo[3,2-c]pyridin-4-one] | 0.167 nM | 416 nM | 2520 nM | – | – | – | –
COc1c(F)cccc1Nc1c(-c2ccncc2OCC(C)(C)N(C)C)[nH]c2c1C(=O)NCC2 [Example 74, 2-{3-[2-(dimethylamino)-2-methylpropoxy]pyridin-4-yl}-3-(3-fluoro-2-methoxyanilino)-1,5,6,7-tetrahydro-4H-pyrrolo[3,2-c]pyridin-4-one] | 0.865 nM | 97.9 nM | 4070 nM | – | – | – | –
COc1c(F)cccc1Nc1c(-c2ccncc2OCC(C)(C)N2CCOCC2)[nH]c2c1C(=O)NCC2 [Example 75, 3-(3-fluoro-2-methoxyanilino)-2-{3-[2-methyl-2-(morpholin-4-yl)propoxy]pyridin-4-yl}-1,5,6,7-tetrahydro-4H-pyrrolo[3,2-c]pyridin-4-one] | 0.903 nM | – | – | 98 nM | 2360 nM | – | –
CC(C)(COc1cnccc1-c1[nH]c2c(c1Nc1cccc(F)c1OC(F)F)C(=O)NCC2)N1CCOCC1 [Example 76, 3-[2-(difluoromethoxy)-3-fluoroanilino]-2-{3-[2-methyl-2-(morpholin-4-yl)propoxy]pyridin-4-yl}-1,5,6,7-tetrahydro-4H-pyrrolo[3,2-c]pyridin-4-one] | 0.845 nM | – | – | 250 nM | 2090 nM | – | –
Cc1c(Cl)cccc1Nc1c(-c2ccncc2OC[C@@H]2CCCN2C)[nH]c2c1C(=O)NCC2 [Example 77, 3-(3-chloro-2-methylanilino)-2-(3-{[(2S)-1-methylpyrrolidin-2-yl]methoxy}pyridin-4-yl)-1,5,6,7-tetrahydro-4H-pyrrolo[3,2-c]pyridin-4-one] | 0.727 nM | 46.3 nM | 1480 nM | – | – | – | –
COC(C)(C)COc1cnccc1-c1[nH]c2c(c1Nc1cccc(Cl)c1Br)C(=O)NCC2 [Example 78, 3-(2-bromo-3-chloroanilino)-2-[3-(2-methoxy-2-methylpropoxy)pyridin-4-yl]-1,5,6,7-tetrahydro-4H-pyrrolo[3,2-c]pyridin-4-one] | < 0.0725 nM and 0.0736 nM | 16 nM | 583 nM | – | – | – | –
O=C1NCCc2[nH]c(-c3ccncc3OCC3CCOC3)c(Nc3cccc(Cl)c3OC(F)F)c21 (stereo not drawn) [Example 79, 3-[3-chloro-2-(difluoromethoxy)anilino]-2-{3-[(oxolan-3-yl)methoxy]pyridin-4-yl}-1,5,6,7-tetrahydro-4H-pyrrolo[3,2-c]pyridin-4-one] | 0.242 nM | 118 nM | 1810 nM | – | – | – | –
COc1c(Cl)cccc1Nc1c(-c2ccncc2OC[C@@H]2CCCN2)[nH]c2c1C(=O)NCC2 [Example 80, 3-(3-chloro-2-methoxyanilino)-2-(3-{[(2S)-pyrrolidin-2-yl]methoxy}pyridin-4-yl)-1,5,6,7-tetrahydro-4H-pyrrolo[3,2-c]pyridin-4-one] | 0.503 nM | 206 nM | 1460 nM | – | – | – | –
O=C1NCCc2[nH]c(-c3ccncc3OCCN3CCOCC3)c(Nc3cccc(Cl)c3OC(F)F)c21 [Example 81, 3-[3-chloro-2-(difluoromethoxy)anilino]-2-{3-[2-(morpholin-4-yl)ethoxy]pyridin-4-yl}-1,5,6,7-tetrahydro-4H-pyrrolo[3,2-c]pyridin-4-one] | 0.441 nM | – | – | 405 nM | 4190 nM | – | –
O=C1NCCc2[nH]c(-c3ccncc3OCC3CCOCC3)c(Nc3cccc(Cl)c3OC(F)F)c21 [Example 82, 3-[3-chloro-2-(difluoromethoxy)anilino)-2-{3-[(oxan-4-yl)-methoxy]pyridin-4-yl}-1,5,6,7-tetrahydro-4H-pyrrolo[3,2-c]pyridin-4-one] | 0.399 nM | 909 nM | 8610 nM | – | – | – | –
COC(C)(C)COc1cnccc1-c1[nH]c2c(c1Nc1cccc(F)c1OC(F)F)C(=O)NCC2 [Example 83, 3-[2-(difluoromethoxy)-3-fluoroanilino]-2-[3-(2-methoxy-2-methylpropoxy)pyridin-4-yl]-1,5,6,7-tetrahydro-4H-pyrrolo[3,2-c]pyridin-4-one-hydrogen chloride (1/1) Salt] | 0.167 nM | – | – | – | – | 100 nM | 2290 nM
COc1c(F)cccc1Nc1c(-c2ccncc2OCCN2CCOCC2)[nH]c2c1C(=O)NCC2 [Example 84, 3-(3-fluoro-2-methoxyanilino)-2-{3-[2-(morpholin-4-yl)ethoxy]pyridin-4-yl}-1,5,6,7-tetrahydro-4H-pyrrolo[3,2-c]pyridin-4-one] | 0.223 nM | – | – | 188 nM | 2210 nM | – | –
COc1c(F)cccc1Nc1c(-c2ccncc2OCC2CCCO2)[nH]c2c1C(=O)NCC2 (stereo not drawn) [Example 86, 3-(3-fluoro-2-methoxyanilino)-2-{3-[(oxolan-2-yl)methoxy]pyridin-4-yl}-1,5,6,7-tetrahydro-4H-pyrrolo[3,2-c]pyridin-4-one] | 0.122 nM | 12.8 nM | 377 nM | – | – | – | –
COc1c(Cl)cccc1Nc1c(-c2ccncc2OCCOC(C)(C)C)[nH]c2c1C(=O)NCC2 [Example 87, 2-[3-(2-tert-butoxyethoxy)pyridin-4-yl]-3-(3-chloro-2-methoxyanilino)-1,5,6,7-tetrahydro-4H-pyrrolo[3,2-c]pyridin-4-one] | 0.204 nM | 34.4 nM | 1060 nM | – | – | – | –
COc1c(F)cccc1Nc1c(-c2ccncc2OCC2CCCCN2C)[nH]c2c1C(=O)NCC2 (stereo not drawn) [Example 90, 3-(3-fluoro-2-methoxyanilino)-2-(3-{[1-methylpiperidin-2-yl]methoxy}pyridin-4-yl)-1,5,6,7-tetrahydro-4H-pyrrolo[3,2-c]pyridin-4-one] | 0.69 nM | 29 nM | 2660 nM | – | – | – | –
COc1c(F)cccc1Nc1c(-c2ccncc2OCCOC(C)(C)C)[nH]c2c1C(=O)NCC2 [Example 91, 2-[3-(2-tert-butoxyethoxy)pyridin-4-yl]-3-(3-fluoro-2-methoxyanilino)-1,5,6,7-tetrahydro-4H-pyrrolo[3,2-c]pyridin-4-one] | 0.135 nM | 35.7 nM | 1100 nM | – | – | – | –
COc1c(F)cccc1Nc1c(-c2ccncc2OC[C@@H](C)OC)[nH]c2c1C(=O)NCC2 [Example 92, 3-(3-fluoro-2-methoxyanilino)-2-{3-[(2R)-2-methoxypropoxy]pyridin-4-yl}-1,5,6,7-tetrahydro-4H-pyrrolo[3,2-c]pyridin-4-one] | 0.118 nM | 10.4 nM | 309 nM | – | – | – | –
COc1c(F)cccc1Nc1c(-c2ccncc2OC(C)Cc2ccccc2)[nH]c2c1C(=O)NCC2 (stereo not drawn) [Example 93, 3-(3-fluoro-2-methoxyanilino)-2-{3-[(1-phenylpropan-2-yl)oxy]pyridin-4-yl}-1,5,6,7-tetrahydro-4H-pyrrolo[3,2-c]pyridin-4-one] | 0.277 nM | 468 nM | 3680 nM | – | – | – | –
COC(C)(C)COc1cnccc1-c1[nH]c2c(c1Nc1cccc(F)c1C#N)C(=O)NCC2 [Example 94, 2-fluoro-6-({2-[3-(2-methoxy-2-methylpropoxy)pyridin-4-yl]-4-oxo-4,5,6,7-tetrahydro-1H-pyrrolo[3,2-c]pyridin-3-yl}amino)benzonitrile] | 0.228 nM | 54.9 nM | 4620 nM | – | – | – | –
COc1c(Cl)cccc1Nc1c(-c2ccncc2OC[C@@H]2CCCN2CC(F)(F)F)[nH]c2c1C(=O)NCC2 [Example 95, 3-(3-chloro-2-methoxyanilino)-2-(3-{[(2S)-1-(2,2,2-trifluoroethyl)pyrrolidin-2-yl]methoxy}pyridin-4-yl)-1,5,6,7-tetrahydro-4H-pyrrolo[3,2-c]pyridin-4-one] | 0.187 nM | 141 nM | 2370 nM | – | – | – | –
COc1c(Nc2c(-c3ccncc3OCCN(C)CC(F)(F)F)[nH]c3c2C(=O)NCC3)ccc(F)c1Cl [Example 96, 3-(3-chloro-4-fluoro-2-methoxyanilino)-2-(3-{2-[methyl(2,2,2-trifluoroethyl)amino]ethoxy}pyridin-4-yl)-1,5,6,7-tetrahydro-4H-pyrrolo[3,2-c]pyridin-4-one] | 0.305 nM | 49.6 nM | 1470 nM | – | – | – | –
